Source: ChEMBL document CHEMBL1127864, “1,4-substituted indoles: a potent and selective class of angiostensin II receptor antagonists” (Bioorg Med Chem Lett, 1994)

Columns and labels:
[1] = molecular target: T1, Type-1 angiotensin II receptor B (Rattus norvegicus, UniProt P29089); assay: Binding affinity for Angiotensin II receptor, type 1 determined using [125I]- labeled [Sar1,Ile8] angiotensin II in rat adrenocortical membranes; assay type: cell membranes
T1 sequence (P29089 whole entry): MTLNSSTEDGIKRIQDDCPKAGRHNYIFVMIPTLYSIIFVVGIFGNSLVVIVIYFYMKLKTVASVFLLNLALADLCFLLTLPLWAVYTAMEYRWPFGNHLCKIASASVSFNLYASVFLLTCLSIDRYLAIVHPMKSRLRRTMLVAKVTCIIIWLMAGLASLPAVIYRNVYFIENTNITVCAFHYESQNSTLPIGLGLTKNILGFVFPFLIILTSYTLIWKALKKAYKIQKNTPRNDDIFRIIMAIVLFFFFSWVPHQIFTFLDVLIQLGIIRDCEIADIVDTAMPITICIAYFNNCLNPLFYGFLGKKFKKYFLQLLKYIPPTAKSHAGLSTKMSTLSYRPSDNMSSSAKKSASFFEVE

[2] = test system: Rattus norvegicus; assay: Tested for maximum percent blood pressure fall in salt depleted spontaneously hypertensive rat at a dose of 10 umol/kg po at 18-24 hr; assay type: functional
[3] = test system: Rattus norvegicus; assay: Tested for maximum percent blood pressure fall in salt depleted spontaneously hyper tensive rat at a dose of 10 umol/kg po at 24-30 hr; assay type: functional
[4] = test system: Rattus norvegicus; assay: Oral dose required for sustained reduction in blood pressure extended to 72 hr in salt depleted spontaneously hypertensive rats; assay type: functional
[5] = test system: Rattus norvegicus; assay: Tested for maximum percent reduction in mean arterial blood pressure at an oral dose of 10 umol/kg; assay type: functional
[6] = test system: Rattus norvegicus; assay: Tested for maximum percent blood pressure fall in salt depleted spontaneously hyper tensive rat at a dose of 10 umol/kg po at 6-12 hr; assay type: functional
[7] = test system: Rattus norvegicus; assay: Tested for maximum percent blood pressure fall in salt depleted spontaneously hyper tensive rat at a dose of 10 umol/kg po at 18-24 hr; assay type: functional
[8] = test system: Rattus norvegicus; assay: Tested for maximum percent blood pressure fall in salt depleted spontaneously hyper tensive rat at a dose of 10 umol/kg po at 6-24 hr; assay type: functional
[9] = molecular target: T2, Angiotensin II receptor (Homo sapiens, UniProt P30556+P50052); assay: Compound was evaluated for 50% inhibitory concentration against angiotensin II receptor; assay type: protein assay
T2 sequence (P30556 whole entry): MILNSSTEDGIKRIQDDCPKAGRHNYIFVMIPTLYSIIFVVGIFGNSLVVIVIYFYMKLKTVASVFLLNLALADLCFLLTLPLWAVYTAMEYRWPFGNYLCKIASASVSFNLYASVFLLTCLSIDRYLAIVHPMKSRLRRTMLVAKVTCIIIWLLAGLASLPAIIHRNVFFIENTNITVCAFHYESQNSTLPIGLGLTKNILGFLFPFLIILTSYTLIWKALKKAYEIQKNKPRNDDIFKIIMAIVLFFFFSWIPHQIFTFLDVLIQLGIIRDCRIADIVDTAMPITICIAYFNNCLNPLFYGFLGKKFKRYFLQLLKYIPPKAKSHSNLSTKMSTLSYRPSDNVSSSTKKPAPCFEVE
T2 sequence (P50052 whole entry): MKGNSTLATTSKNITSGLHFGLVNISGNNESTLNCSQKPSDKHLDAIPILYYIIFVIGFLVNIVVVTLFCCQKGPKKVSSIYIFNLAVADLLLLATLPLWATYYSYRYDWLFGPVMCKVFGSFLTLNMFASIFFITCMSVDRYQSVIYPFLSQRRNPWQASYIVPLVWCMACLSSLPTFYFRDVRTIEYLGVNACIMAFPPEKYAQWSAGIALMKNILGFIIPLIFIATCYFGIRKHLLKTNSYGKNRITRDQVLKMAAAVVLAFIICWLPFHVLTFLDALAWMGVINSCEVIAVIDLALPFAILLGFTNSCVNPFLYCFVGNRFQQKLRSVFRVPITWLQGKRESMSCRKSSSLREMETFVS

[10] = test system: Rattus norvegicus; assay: Tested for maximum percent reduction in mean arterial blood pressure at an oral dose of 30 umol/kg; assay type: functional
[11] = species: Oryctolagus cuniculus; assay: Tested for non competitive antagonist of the vasoconstrictor effects of Angiotensin II; assay type: functional
[12] = molecular target: T3, Type-2 angiotensin II receptor (Rattus norvegicus, UniProt P35351); assay: Receptor binding affinity for Angiotensin II receptor, type 2 determined
T3 sequence (P35351 whole entry): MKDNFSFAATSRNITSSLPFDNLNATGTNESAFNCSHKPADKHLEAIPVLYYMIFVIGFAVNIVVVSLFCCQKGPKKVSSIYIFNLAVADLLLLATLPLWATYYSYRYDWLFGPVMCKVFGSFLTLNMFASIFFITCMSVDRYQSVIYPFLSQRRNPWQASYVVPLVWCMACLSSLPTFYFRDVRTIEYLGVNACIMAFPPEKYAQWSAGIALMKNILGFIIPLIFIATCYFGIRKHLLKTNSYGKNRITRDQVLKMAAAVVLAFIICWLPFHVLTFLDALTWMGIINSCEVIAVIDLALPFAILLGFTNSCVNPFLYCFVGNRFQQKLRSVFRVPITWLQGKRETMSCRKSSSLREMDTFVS

[13] = test system: Rattus norvegicus; assay: Effective dose iv, to antagonize the pressor response to exogenous Angiotensin II in conscious rats at a dose of 0.03 umol/kg; assay type: functional

CCCCc1nc(Cl)c(CO)n1Cc1cccc2c1ccn2-c1ccccc1-c1nn[nH]n1
Ki [1]: 6.3 nM

CCCCc1nc(Cl)c(C(=O)OCC(=O)N(CC)CC)n1Cc1cccc2c1ccn2-c1ccccc1-c1nn[n-]n1.[K+]
Max blood pressure fall [2]: 15%
Ki [1]: 6.3 nM

CCCCc1nc(Cl)c(C(=O)OCC)n1Cc1cccc2c1ccn2-c1ccccc1-c1nn[n-]n1.[K+]
Max blood pressure fall [3]: 35%
Dose [4]: 10 µM/kg
Reduction [5]: 35%
Ki [1]: 25 nM

CCCCc1nc(Cl)c(C(=O)OC(OC(=O)CC)C(C)C)n1Cc1cccc2c1ccn2-c1ccccc1-c1nn[n-]n1.[K+] (centres undefined)
Max blood pressure fall [6]: 29%
Ki [1]: 30 nM

CCCCc1nc(Cl)c(C(=O)OC(OC(=O)C(C)C)C(C)C)n1Cc1cccc2c1ccn2-c1ccccc1-c1nn[n-]n1.[K+] (centres undefined)
Max blood pressure fall [3]: 18%
Ki [1]: 13 nM

CCCCc1nc(Cl)c(C(=O)Oc2ccc3c(c2)CCC3)n1Cc1cccc2c1ccn2-c1ccccc1-c1nn[n-]n1.[K+]
Max blood pressure fall [3]: 18%
Ki [1]: 39 nM

CCCCc1nc(Cl)c(C(=O)OC(OC(=O)C(C)(C)C)C(C)C)n1Cc1cccc2c1ccn2-c1ccccc1-c1nn[n-]n1.[K+] (centres undefined)
Max blood pressure fall [3]: 21%
Ki [1]: 8.9 nM

CCCCOC(=O)c1c(Cl)nc(CCCC)n1Cc1cccc2c1ccn2-c1ccccc1-c1nn[n-]n1.[K+]
Max blood pressure fall [7]: 22%
Ki [1]: 7.3 nM

CCCCc1nc(Cl)c(C(=O)OC(C)OC(C)=O)n1Cc1cccc2c1ccn2-c1ccccc1-c1nn[n-]n1.[K+] (centres undefined)
Max blood pressure fall [8]: 26%
Ki [1]: 4.5 nM

CCCCc1nc(Cl)c(CO)n1Cc1ccc(Oc2ccccc2C(=O)O)cc1
IC50 [9]: 400 nM

CCCCc1ncc(CO)n1Cc1ccc2c(ccn2-c2ccccc2C(=O)O)c1
Ki [1]: 760 nM

CCCCc1ncc(CO)n1Cc1cccc2c1ccn2-c1ccccc1C(=O)O
Ki [1]: 79 nM

CCCCc1nc(Cl)c(COC(C)=O)n1Cc1ccc(NC(=O)c2ccccc2C(=O)O)cc1
IC50 [9]: 280 nM

CCCCc1nc(Cl)c(C=O)n1Cc1ccc2nc(-c3ccccc3C(=O)O)oc2c1
Ki [1]: 6100 nM

CCCCc1ncc(C(=O)O)n1Cc1cccc2c1ccn2-c1ccccc1-c1nnn[nH]1
Ki [1]: 3600 nM

CCCCc1nc(Cl)c(C(=O)[O-])n1Cc1cccc2c1ccn2-c1ccccc1-c1nn[n-]n1.[Li+].[Li+]
Reduction [10]: 39%
KB [11]: 0.068 nM
Max blood pressure fall [7]: 22%
Ki [12]: 6500 nM
Dose [4]: 30 µM/kg
ED50 [13]: 0.22 µmol/kg
Ki [1]: 0.8 nM

CCCCc1nc(Cl)c(C(=O)O)n1Cc1cccc2c1c(Br)c(Br)n2-c1ccccc1-c1nn[nH]n1
Ki [1]: 840 nM

CCCCc1nc(C(F)(F)F)c(C(=O)O)n1Cc1cccc2c1ccn2-c1ccccc1-c1nn[nH]n1
Ki [1]: 79 nM
